In article PMC3462592 (Journal of medicinal chemistry, 2012):
In brackets after ≈: the same amount, converted by molar mass. Where two headings read alike, the source gives them in different places. Values belong to the compound of their own block, whether it stands above or below them.

What was measured:
[1] = Aqueous solubility determination; assay type: physicochemical
[2] = Human liver microsome stability assay; assay type: in vitro ADME; conditions: for microsomal CLint at 1 μM: human, human liver microsomes, pH 7.4; for HLM t1/2: human liver microsomes 0.1 mg/mL, 1 μM compound, 37 °C, at least two experiments
HIV-1 NL4-3 (wild-type) = assay: microbe, parasite or virus in culture; assay type: cell-based; conditions: for EC50: Human immunodeficiency virus 1, NL43, TZM-bl; for SI (selectivity index): ratio CC50/EC50
[3] = In vitro cytotoxicity in TZM-bl cells; assay type: cell-based; conditions: human

solubility at 4 h ([1]; 0.01 M HCl, pH 2): 20.9 to 44.7 µg/mL (≈ 53.7 to 115 µM)
SMILES: Cc1cc(CO)cc(C)c1Oc1cc(Nc2ccc(C#N)cc2)c(N)cc1CO [13e, N^1-(4′-Cyanophenyl)-5-(2″,6″-dimethyl-4″-hydroxymethylphenoxy)-4-hydroxymethylbenzene-1,2-diamine]

microsomal CLint at 1 μM [2]: 150 µL/min/mg
SMILES: Cc1cc(/C=C/C#N)cc(C)c1Oc1cc(Nc2ccc(C#N)cc2)c(N)cc1C(F)(F)F [14a, (E)-N^1-(4′-Cyanophenyl)-5-(4″-cyanovinyl-2″,6″-dimethylphenoxy)-4-trifluoromethylbenzene-1,2-diamine]

SMILES: COC(=O)c1cc(N)c(Nc2ccc(C#N)cc2)cc1Oc1c(C)cc(/C=C/C#N)cc1C [14c, (E)-N^1-(4′-Cyanophenyl)-5-(4″-cyanovinyl-2″,6″-dimethylphenoxy)-4-methoxycarbonylbenzene-1,2-diamine]
microsomal CLint at 1 μM [2]: 20 µL/min/mg
EC50 (HIV-1 NL4-3 (wild-type)): 2.74 nM
EC50 (HIV-1 NL4-3 (wild-type); read-out: EC50 NL4-3 (wt)): 2.74 ± 0.71 nM

SMILES: Cc1cc(/C=C/C#N)cc(C)c1Oc1cc(Nc2ccc(C#N)cc2)c(N)cc1C(=O)O [14d, (E)-4-Carboxy-N^1-(4′-cyanophenyl)-5-(4″-cyanovinyl-2″,6″-dimethylphenoxy)benzene-1,2-diamine]
EC50 (HIV-1 NL4-3 (wild-type); read-out: EC50 NL4-3 (wt)): 230 ± 38 nM

SMILES: Cc1cc(/C=C/C#N)cc(C)c1Oc1cc(Nc2ccc(C#N)cc2)c(N)cc1C(N)=O [14e, (E)-4-Carbamoyl-N^1-(4′-cyanophenyl)-5-(4″-cyanovinyl-2″,6″-dimethylphenoxy)benzene-1,2-diamine]
EC50 (HIV-1 NL4-3 (wild-type)): 0.87 nM
EC50 (HIV-1 NL4-3 (wild-type); read-out: EC50 NL4-3): 0.87 nM
EC50 (HIV-1 NL4-3 (wild-type); read-out: EC50 NL4-3 (wt)): 0.87 ± 0.28 nM

SMILES: CNC(=O)c1cc(N)c(Nc2ccc(C#N)cc2)cc1Oc1c(C)cc(/C=C/C#N)cc1C [14f, (E)-N^1-(4′-Cyanophenyl)-5-(4″-cyanovinyl-2″,6″-dimethylphenoxy)-4-methylcarbamoylbenzene-1,2-diamine]
microsomal CLint at 1 μM [2]: 150 µL/min/mg
EC50 (HIV-1 NL4-3 (wild-type)): 5.72 nM
EC50 (HIV-1 NL4-3 (wild-type); read-out: EC50 NL4-3 (wt)): 5.72 ± 0.94 nM

SMILES: Cc1cc(/C=C/C#N)cc(C)c1Oc1cc(Nc2ccc(C#N)cc2)c(N)cc1CO [14h, (E)-N^1-(4′-Cyanophenyl)-5-(4″-cyanovinyl-2″,6″-dimethylphenoxy)-4-hydroxymethylbenzene-1,2-diamine]
HLM t1/2 [2]: 30.2 min
EC50 (HIV-1 NL4-3 (wild-type)): 0.53 nM
EC50 (HIV-1 NL4-3 (wild-type); read-out: EC50 NL4-3): 0.53 nM
EC50 (HIV-1 NL4-3 (wild-type); read-out: EC50 NL4-3 (wt)): 0.53 ± 0.13 nM

SMILES: Cc1cc(CCC#N)cc(C)c1Oc1cc(Nc2ccc(C#N)cc2)c(N)cc1C(F)(F)F [15a, 5-(4″-Cyanoethyl-2″,6″-dimethylphenoxy)-N^1-(4′-cyanophenyl)-4-trifluoromethylbenzene-1,2-diamine]
microsomal CLint at 1 μM [2]: 120 µL/min/mg
SI (selectivity index) (HIV-1 NL4-3 (wild-type); Table 1): > 6454
solubility at 4 h ([1]; 0.01 M HCl, pH 2, Aqueous solubility pH 2.0, Table 4, pH 2.0, triplicate): 0.33 µg/mL (≈ 0.733 µM)

microsomal CLint at 1 μM [2]: 40 µL/min/mg
SMILES: COC(=O)c1cc(N)c(Nc2ccc(C#N)cc2)cc1Oc1c(C)cc(CCC#N)cc1C [15c, 5-(4″-Cyanoethyl-2″,6″-dimethylphenoxy)-N^1-(4′-cyanophenyl)-4-methoxycarbonylbenzene-1,2-diamine]

microsomal CLint at 1 μM [2]: 160 µL/min/mg
SMILES: Cc1cc(CCC#N)cc(C)c1Oc1cc(Nc2ccc(C#N)cc2)c(N)cc1C(N)=O [15e, 4-Carbanoyl-N^1-(4′-cyanophenyl)-5-(4″-cyanoethyl-2″,6″-dimethylphenoxy)benzene-1,2-diamine]

microsomal CLint at 1 μM [2]: 120 µL/min/mg
SMILES: CNC(=O)c1cc(N)c(Nc2ccc(C#N)cc2)cc1Oc1c(C)cc(CCC#N)cc1C [15f, 5-(4″-Cyanoethyl-2″,6″-dimethylphenoxy)-N^1-(4′-cyanophenyl)-4-methylcarbanoylbenzene-1,2-diamine]

microsomal CLint at 1 μM [2]: 330 µL/min/mg
SMILES: Cc1cc(CCC#N)cc(C)c1Oc1cc(Nc2ccc(C#N)cc2)c(N)cc1CO [15h, 5-(4″-Cyanoethyl-2″,6″-dimethylphenoxy)-N^1-(4′-cyanophenyl)-4-hydroxymethylbenzene-1,2-diamine]

SMILES: Cc1cc(CCC#N)cc(C)c1Oc1cc(Nc2ccc(C#N)cc2)c(N)cc1N [15i, 5-(4″-Cyanoethyl-2″,6″-dimethyl)phenoxy-N^1-(4′-cyanophenyl)benzene-1,2,4-triamine]
SI (selectivity index) (HIV-1 NL4-3 (wild-type); Table 2): >3906

HLM t1/2 [2]: 34.2 min
SMILES: Cc1cc(/C=C/C#N)cc(C)c1Nc1ccnc(Nc2ccc(C#N)cc2)n1 [compound 2, rilpivirine, reference compound]
CC50 at 4 days [3]: 19400 nM

solubility at 4 h [1]: 0.29 µg/mL (≈ 0.682 µM)
SMILES: Cc1cc(/C=C/C#N)cc(C)c1Oc1cc(Nc2ccc(C#N)cc2)c(N)cc1[N+](=O)[O-] [compound 3]
